Converted amounts (≈) assume the structure as drawn.
Assays:
Test in all cases: MIC, broth microdilution (NCCLS)
[1] = test system: Staphylococcus aureus Stau_33591; format: cell-based; conditions: strain ID B; broth microdilution; unit assumed
Experimental: (§1) Strains. The bacterial isolates listed in Table 8 were cultivated from −70° C. frozen stocks by two consecutive overnight passages (P1, P2) at 35° C. on 5% blood agar (Remel, Lenexa, Kans.). Chocolate agar (Remel) is used for Haemophilus influenzae. H. influenzae and Streptococcus pneumoniae are incubated in 5-10% CO2
(§2) Drug Stock Preparation. To determine the amount of solvent to be used to give the desired final concentration, the formula “weight obtained in mg/final concentration in mg/ml” will be used. It will give the amount of solvent in ml needed to be added to give the desired concentration. For example, if 2.5 mg/ml is the desired concentration and the weight of compound is 13.7 mg, then the amount of solvent to be added is […]. Methanol is used as the solvent to dissolve the test compounds. Further dilution of stock is done in sterile, deionized water. Drug stocks are kept frozen at −70° C., protected from light.
(§3) Susceptibility Testing. MICs are determined by the broth microdilution method in accordance with the NCCLS guidelines. In brief, organism suspensions are adjusted to a 0.5 McFarland standard to yield a final inoculum between 3×10^5 and 7×10^5 CFU/ml. Drug dilutions and inocula are made in sterile, cation adjusted Mueller-Hinton Broth (CAMHB) (Remel) for all but S. pneumoniae [CAMHB with 2-5% lysed horse blood (Remel)] and H. influenzae [Haemophilus Test Medium (Remel)]. An inoculum volume of 100 μl is added to wells containing 100 μl of broth with 2-fold serial dilutions of drug. All inoculated microdilution trays are incubated in ambient air at 35° C. for 18-24 hours, except for S. pneumoniae, and H. influenzae (both at 5-10% CO2).
(§4) Following appropriate incubation, the MIC is determined and the MIC is defined as the lowest concentration of the drug that prevented visible growth. […] Antibacterial activity of representative compounds of the invention were compared against telitromycin.

[2] = test system: Streptococcus pneumoniae Stpn_280-962; format: cell-based; parameters: MIC, strain ID O: unit not given beside the values; conditions: for MIC: Table 7, Strain ID H (Table 6): S. pneumoniae Stpn_280-962
In short: (§5)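 Broth microdilution per NCCLS in cation-adjusted Mueller-Hinton broth, with 2-5% lysed horse blood added for S. pneumoniae. Inoculum 3×10^5–7×10^5 CFU/ml, 2-fold drug dilutions, 18-24 h at 35° C; S. pneumoniae under 5-10% CO2, others ambient air. MIC = lowest concentration preventing visible growth.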

[3] = test system: Enterococcus faecalis Enfa_29212; format: cell-based; conditions: in µg/mL (unit assumed); for MIC: Table 7, Strain ID D (Table 6): E. faecalis Enfa_29212
In short: as §5

[4] = test system: Staphylococcus epidermidis Step_14990; format: cell-based; conditions: in µg/mL (unit assumed); for MIC: Table 7, Strain ID B (Table 6): S. epidermidis Step_14990
In short: as §5

[5] = test system: Streptococcus pneumoniae Stpn_297-749; format: cell-based; parameters: MIC, strain ID N: unit not given here; conditions: for MIC: Table 7, Strain ID G (Table 6): S. pneumoniae Stpn_297-749
In short: as §5

[6] = test system: Streptococcus pneumoniae Stpn_49619; format: cell-based; parameters: MIC, strain ID M: unit not given beside the values; conditions: for MIC: Table 7, Strain ID F (Table 6): S. pneumoniae Stpn_49619
In short: as §5

[7] = test system: Streptococcus pyogenes Stpy_8668; format: cell-based; parameters: MIC, strain ID G: unit not given beside the values; conditions: for MIC: Table 7, Strain ID E (Table 6): S. pyogenes Stpy_8668
In short: as §5

[8] = test system: S. pneumoniae Stpn_Erm 6849; format: cell-based, Streptococcus pneumoniae; conditions: for MIC: Table 7, Strain ID I (Table 6): S. pneumoniae Stpn_Erm 6849, unit assumed
In short: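 Lowest drug concentration giving no visible growth after 18-24 hours at 35° C. under 5-10% CO2 was taken as MIC. Twofold serial dilutions in CAMHB plus 2-5% lysed horse blood, final inoculum 3×10^5–7×10^5 CFU/ml, per NCCLS microdilution.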

[9] = test system: Streptococcus pneumoniae Stpn_Mef 5654; format: cell-based; conditions: Table 7, Strain ID K (Table 6): S. pneumoniae Stpn_Mef 5654; in µg/mL (unit assumed)
Experimental: as §1, with “4” for “8”
as §2, §3
Following appropriate incubation, the MIC is determined and the MIC is defined as the lowest concentration of the drug that prevented visible growth.
as §1, §4

[10] = test system: Staphylococcus epidermidis Step_f50654; format: cell-based; conditions: Table 7, Strain ID C (Table 6): S. epidermidis Step_f50654; in µg/mL (unit assumed)
In short: as §5

[11] = test system: Streptococcus pneumoniae Stpn_Mef S 3427; format: cell-based; conditions: Table 7, Strain ID L (Table 6): S. pneumoniae Stpn_Mef S 3427
In short: as §5

[12] = test system: Staphylococcus aureus Stau_29213; format: cell-based; conditions: Table 7, Strain ID A (Table 6): S. aureus Stau_29213; in µg/mL (unit assumed)
In short: as §5

[13] = test system: Streptococcus pneumoniae Stpn_Erm S 4297; format: cell-based; conditions: Table 7, Strain ID J (Table 6): S. pneumoniae Stpn_Erm S 4297; unit assumed
In short: as §5

[14] = test system: Haemophilus influenzae Hain_49247; format: cell-based; conditions: Table 7, Strain ID M (Table 6): H. influenzae Hain_49247; unit assumed

Structure (SMILES)	MIC [9]	MIC [2]	MIC [10]	MIC [3]	MIC ([11]; in µg/mL (unit assumed))	MIC [12]	MIC [4]	MIC [13]	MIC [14]	MIC [5]	MIC [6]	MIC [7]	MIC [8]	MIC ([7]; unit assumed)	further results
C#C[C@]12OC(=O)N(CCCCn3cnc(-c4ccc(C)nc4)c3)[C@@H]1[C@@H](C)C(=O)[C@H](C)C[C@](C)(OC)[C@H](OC1O[C@H](C)C[C@H](N(C)C)[C@H]1O)[C@@H](C)C(=O)[C@@H](C)C(=O)O[C@@H]2CC (stereo partly shown) [XXXIII]	–	–	–	–	–	–	–	–	–	–	–	–	–	–	MIC, strain ID B [1]: > 50 µg/mL; MIC, strain ID O ([2]; strain ID O, broth microdilution): =0.05; MIC, strain ID E ([3]; strain ID E, broth microdilution): 0.1; MIC, strain ID C ([4]; strain ID C, broth microdilution): 0.2; MIC, strain ID N ([5]; strain ID N, broth microdilution): =0.05; MIC, strain ID M ([6]; strain ID M, broth microdilution): =0.05; MIC, strain ID G ([7]; strain ID G, broth microdilution): =0.05; MIC, strain ID P ([8]; strain ID P, broth microdilution, in µg/mL (unit assumed)): 1.56
CCC1OC(=O)C(C)C(=O)C(C)C(OC2OC(C)CC(N(C)C)C2O)C(C)(OC)CC(C)C(=O)C(C)C2C1OC(=O)N2CCCCc1ccnc2c(C(F)(F)F)cccc12 (stereo not shown) [Compound 20q]	0.4	=0.05	0.4	0.1	0.1	0.4	0.2	0.2 µg/mL (≈ 0.235 µM)	12.5 µg/mL (≈ 14.7 µM)	=0.05	=0.05	=0.05	1.56 µg/mL (≈ 1.84 µM)	–	–
CCC1OC(=O)C(C)C(=O)C(C)C(OC2OC(C)CC(N(C)C)C2O)C(C)(OC)CC(C)C(=O)C(C)C2C1OC(=O)N2CCCCc1ncc(-c2ccc(F)cc2F)s1 (stereo not shown) [Compound 20u]	1.56	–	0.4	0.4	0.2	0.78	0.78	12.5 µg/mL (≈ 14.7 µM)	25 µg/mL (≈ 29.4 µM)	–	–	–	25 µg/mL (≈ 29.4 µM)	0.4 µg/mL (≈ 0.471 µM)	MIC ([2]; unit assumed): 0.1 µg/mL (≈ 0.118 µM); MIC ([5]; unit assumed): 0.1 µg/mL (≈ 0.118 µM); MIC ([6]; unit assumed): 0.1 µg/mL (≈ 0.118 µM)
CCC1OC(=O)C(C)C(=O)C(C)C(OC2OC(C)CC(N(C)C)C2O)C(C)(OC)CC(C)C(=O)C(C)C2C1OC(=O)N2CCCOc1cccc(-c2cccnc2)c1 (stereo not shown) [Compound 20s]	0.78	=0.05	0.4	0.2	–	0.78	0.78	0.2 µg/mL (≈ 0.247 µM)	3.13 µg/mL (≈ 3.86 µM)	=0.05	=0.05	=0.05	12.5 µg/mL (≈ 15.4 µM)	–	MIC [11]: =0.05
C/C=C/[C@]12OC(=O)N(CCCCn3cnc(-c4cccnc4)c3)[C@@H]1[C@@H](C)C(=O)[C@H](C)C[C@](C)(OC)[C@H](OC1O[C@H](C)C[C@H](N(C)C)[C@H]1O)[C@@H](C)C(=O)[C@@H](C)C(=O)O[C@@H]2CC (stereo partly drawn) [65 (2), (3aS,4R,7R,9R,10R,11S,13R,15R,15aR)-4-ETHYL-11-METHOXY-7,9,11,13,15-PENTAMETHYL-2,6,8,14-TETRAOXO-3a-[(1E)-PROP-1-ENYL]-1-[4-(4-PYRIDIN-3-YL-1H-IMIDAZOL-1-YL)BUTYL]TETRADECAHYDRO-1H-OXACYCLOTETRADECINO[4,3-D][1,3]OXAZOL-10-YL 3,4,6-TRIDEOXY-3-(DIMETHYLAMINO)-D-XYLO-HEXOPYRANOSIDE]	0.78	=0.05	3.13	0.78	0.2	3.13	3.13	0.4 µg/mL (≈ 0.477 µM)	25 µg/mL (≈ 29.8 µM)	=0.05	=0.05	–	0.78 µg/mL (≈ 0.931 µM)	0.2 µg/mL (≈ 0.239 µM)	–
CCC1OC(=O)C(C)C(=O)C(C)C(OC2OC(C)CC(N(C)C)C2O)C(C)(OC)CC(C)C(=O)C(C)C2C1OC(=O)N2CCCCc1ncc(-c2ccccc2)s1 (stereo not shown) [Compound 20t]	1.56	=0.05	0.4	0.4	0.1	0.78	0.78	1.56 µg/mL (≈ 1.92 µM)	12.5 µg/mL (≈ 15.4 µM)	=0.05	=0.05	–	25 µg/mL (≈ 30.7 µM)	0.2 µg/mL (≈ 0.246 µM)	–
